The values below come from ChEMBL document CHEMBL1133802, “N,N'-bis[4-(N-alkylamidino)phenyl]homopiperazines as anti-Pneumocystis carinii agents” (2001).

In assay [1] the test system is Nucleic Acid. As to the kind of experiment: Binding affinity for calf thymus DNA measured as change in melting temperature. In kind it is nucleic-acid assay. The following applies: Bos taurus.
Assay [2] concerns Pneumocystis carinii. Briefly: Anti-P. carinii activity determined as change in number of Pneumocystis carinii trophozoites from day 1 through day 7 in culture at 1 uM. In kind it is functional.
Assay [3] deals with Pneumocystis carinii. As to the kind of experiment: Percent of control growth of Pneumocystis carinii trophozoites was determined. The assay is classed as functional. Also on record: concentration or dose not given beside the values.
Assay [4] in a line: Binding affinity for Poly (dA-dT) measured as change in melting temperature.
Assay [5] has as its system Pneumocystis carinii. Briefly: Anti-P. carinii activity determined as change in number of Pneumocystis carinii trophozoites from day 1 through day 5 in culture at 1 uM. In kind it is functional.

For orientation: ΔTm means the change in melting temperature against a reference sample. `CC(C)(C)/N=C(\N)c1ccc(N2CCCN(c3ccc(/C(N)=N/C(C)(C)C)cc3)CC2)cc1`: the ΔTm was 4.1 °C in assay [1] and 7.4 °C in assay [4]. Moreover, the “Change in No. of trophozoites x 10E-5” value in assay [2] turned out to be 21.57. The molecule also yielded a Growth in assay [3] of 65%.

As to `c1cc(N2CCCN(c3ccc(C4=NCCCN4)cc3)CC2)ccc1C1=NCCCN1`, the ΔTm in assay [1] stood at 15.5 °C; in assay [4], 21.3 °C. The “Change in No. of trophozoites x 10E-5” value in assay [2] worked out at 10.73. This molecule also came in with a Growth in assay [3] of 32%.

`N=C(N)c1ccc(N2CCCN(c3ccc(C(=N)N)cc3)CC2)cc1`: the ΔTm in assay [1] is 15 °C; in assay [4] it was 23.1 °C. The “Change in No. of trophozoites x 10E-5” value in assay [5] was -3.32. The Growth in assay [3] was under 0%.

As for `N=C(N)c1ccc(OCCCCCOc2ccc(C(=N)N)cc2)cc1` [PENTAMIDINE], the ΔTm in assay [1] came out at 11.1 °C; in assay [4] it was 20.6 °C. Further, the “Change in No. of trophozoites x 10E-5” value in assay [5] was -3.98. Also, the Growth in assay [3] is listed as under 0%.

As for `N=C(NCCO)c1ccc(N2CCCN(c3ccc(/C(N)=N/CCO)cc3)CC2)cc1`, the ΔTm turned out to be 11.1 °C in assay [1] and 14.7 °C in assay [4]. In addition, in assay [2], the “Change in No. of trophozoites x 10E-5” value was 33.62. Further, the Growth in assay [3] worked out at 101%.

On to `N=C(NC1CCCC1)c1ccc(N2CCCN(c3ccc(C(=N)NC4CCCC4)cc3)CC2)cc1`, for which the ΔTm in assay [1] was determined as 17.9 °C; in assay [4], 26.5 °C. Moreover, in assay [2], the “Change in No. of trophozoites x 10E-5” value was found to be 34.32. Also, in assay [3], the Growth was found to be 103%.

For `CCCCNC(=N)c1ccc(N2CCCN(c3ccc(C(=N)NCCCC)cc3)CC2)cc1`, the values for the ΔTm in assay [1] and in assay [4] were 11.8 °C and 13.3 °C, respectively. In addition, the “Change in No. of trophozoites x 10E-5” value in assay [2] was 19.19. Moreover, the Growth in assay [3] was 58%.

Regarding `N=C(NCCCO)c1ccc(N2CCCN(c3ccc(/C(N)=N/CCCO)cc3)CC2)cc1`, the ΔTm in assay [1] worked out at 17.4 °C; in assay [4], 23.6 °C. Also, the “Change in No. of trophozoites x 10E-5” value in assay [2] is 34.79. This molecule yielded a Growth in assay [3] of 105%.

In the case of `CC(C)/N=C(\N)c1ccc(N2CCCN(c3ccc(/C(N)=N/C(C)C)cc3)CC2)cc1`, the figures for the ΔTm in assay [1] and in assay [4] were 13.8 °C and 20 °C, respectively. In addition, the “Change in No. of trophozoites x 10E-5” value in assay [2] worked out at 20.2. Moreover, the Growth in assay [3] turned out to be 61%.

On to `COc1cc(Cc2cnc(N)nc2N)cc(OC)c1OC.Cc1cc(NS(=O)(=O)c2ccc(N)cc2)no1` [CO-TRIMOXAZOLE], for which the Growth in assay [3] is reported as under 0%.

Regarding `N=C(NC1CC1)c1ccc(N2CCCN(c3ccc(C(=N)NC4CC4)cc3)CC2)cc1`, the ΔTm is 15.3 °C in assay [1] and 23.6 °C in assay [4]. In addition, the “Change in No. of trophozoites x 10E-5” value in assay [2] stood at 10.92. In assay [3], the Growth is 33%.
